Converted amounts (≈) assume the structure as drawn. “And” between values parts separate entries of the source, which are not always exact repeats. Identical values can stand only once. Like-named read-outs stand apart in the source and are kept apart here.

The values below come from paper PMC11123692, “Sugar-Based Surfactants: Effects of Structural Features on the Physicochemical Properties of Sugar Esters and Their Comparison to Commercial Octyl Glycosides” (Molecules, 2024).

The nature of data set [1]: Water solubility limit by visual examination (transparent/turbid). The data set is classed as physicochemical. The note with it: for Solubility Limit (S/mM) / solubility: water; for solubility: thermodynamic from solid, read-out: Solubility Limit (S/mM). The source says: Water solubility reflects the ability of a particular molecule to dissolve and its interaction with water. To characterize the water solubility of most amphiphile molecules, especially the ionic surfactants, the Krafft point (Tk) is often used, referring to the critical temperature above which micelles form or the melting point of the hydrated solid surfactant. Two general approaches were used to measure the Tks of the molecules investigated herein: (1) a visual examination of the dissolution phenomenon for binary molecule/water systems, and (2) a quantitative measurement by using differential scanning calorimetry (DSC) analysis. The visual observation procedure is detailed below. […] Consequently, molecules can be classified into two major types: those soluble in water at RT and others insoluble at RT, with the solubility limit being called S (expressed in mM). The aspect of the sample, either transparent or turbid, is determined by direct visual examination. Tk determination with DSC is particularly applicable in the case of molecules insoluble at RT, for which a concentrated binary molecule/water mixture with a mass fraction of 20% of each molecule (C >> CMC in most cases) was prepared at 65 °C under stirring for 30 min to obtain a homogeneous system. These pre-homogenized aqueous systems were cooled and conserved in a refrigerator at 4 °C for a suitable period (>7 days), during which equilibrated hydrated crystals formed and precipitated. Then, for each molecule, about a 200–400 mg crystal sample was taken and put into the calorimeter cell. The first equilibrium phase was programmed at 4 °C for 1 h, followed by a slow heating stage from 4 °C to 65 °C at a rate of 0.5 °C/min. Tk was determined based on the location of the endothermic peak on the DSC curve, if any. All agitations were performed using a standard magnetic hotplate stirrer, MR 3001K (Heidolph Instruments, Schwabach, Germany). DSC curves were obtained from a commercial µDSC7 evo calorimeter (SETARAM Instrumentation, Caluire-et-Cuire, France). Tks are reported as the averages of at least two measurements as well as their standard deviations.

The conditions of data set [2]: cited from earlier work.
Data set [3] is described as follows: Precipitation on cooling previously heated 50 mM aqueous solutions. The class given is physicochemical. The note with it: 50 mM in water. The protocol:
For commercial alkyl glucosides, the Tk decreases in the following sequence: C8αGlc > C8βGal >> C8βGlc ≈ C8αGal. […] The obtained Tk for C8αGlc is around 40 °C in accordance with previously published values. However, as determined by the same experimental protocol, the Tk for C8βGal is about 29 °C, much lower than 42 °C derived from the phase diagram reported by Sakya et al. A possible explanation is that Sakya et al. synthesized and purified C8βGal by themselves, whereas we carried our measurements on commercially purchased C8βGal. […] For this reason, we assume that many researchers have been able to investigate their aqueous solutions at 25 °C, as mentioned in the introduction. In addition, when cooling the previously heated solutions with the same molecular concentration of 50 mM, we noted that C8αGlc precipitated much faster than C8βGal. […] This may, to some extent, be explained by a more favorable crystal structure for C8αGlc than C8βGal. With regard to C8αGal, which is presented in commercial samples as a highly viscous liquid, we expect it to have the weakest crystal structure and a very low Tk value. However, our experimental methods cannot give its exact Tk. […]

The nature of data set [4]: Equilibrium surface tension, Wilhelmy plate method (CMC, γcmc, Amin and derived quantities). The class given is physicochemical. To be noted: for Amin: from Gibbs adsorption equation. The protocol:
CMCs are determined from the inflections in the plots of equilibrium surface tension against the logarithm of the concentration. For the interested reader, the Gibbs-free energy of micellization, ΔGmic, the Gibbs-free energy of adsorption, ΔGads, and the efficiency of surfactant adsorption pC20 were calculated based on their definitions, as presented in Table 2.
The surface activity reflects the amphiphiles’ adsorption behavior on the air–aqueous solution interface. The surface tension (γ) was obtained using the Wilhelmy plate method with a K100 Processor Tensiometer (KRUSS, Hamburg, Germany). Both the critical micellar concentration (CMC) and equilibrium surface tension at the CMC (γcmc) were derived from the typical plot of surface tension (γ) against the logarithm of concentration (Log C). The surface excess (Γmax) and minimal area per molecule at the air–aqueous solution interface (Amin) at different temperatures were calculated from the Gibbs adsorption equation [3, 46]:(2) Γmax=−1/2.303RT(dγ/dlogc) and (3) Amin=10^20/NAΓmax where R is the ideal gas constant, 8.31 J∙mol^−1∙K^−1; T is the measuring temperature, K; γ is the surface tension, N/m; c is the concentration, mol.L^−1; Amin is the minimal area per molecule, Å^2, and NA is Avogadro’s number, 6.022·10^23 mol^−1.
For each molecule, several solutions of a wide range of concentrations were prepared. Before measuring, each solution was finely homogenized with the help of a magnetic stirring bar. The stirring time was fixed at 30 min in all cases. […] Then, measurements were performed once for each concentration, at the solution preparation’s temperature, with an uncertainty of ±1 °C.

For data set [5] the following is noted: cited from earlier work. The source holds these as a separate data set.
Data set [6] is described as follows: Krafft temperature (Tk) by visual examination and DSC of molecule/water systems. The class given is physicochemical. To be noted: in water; observation and DSC; average ± SD of at least two measurements. The text has this: Water solubility reflects the ability of a particular molecule to dissolve and its interaction with water. To characterize the water solubility of most amphiphile molecules, especially the ionic surfactants, the Krafft point (Tk) is often used, referring to the critical temperature above which micelles form or the melting point of the hydrated solid surfactant. Two general approaches were used to measure the Tks of the molecules investigated herein: (1) a visual examination of the dissolution phenomenon for binary molecule/water systems, and (2) a quantitative measurement by using differential scanning calorimetry (DSC) analysis. The visual observation procedure is detailed below. We start with adding the molecule into 5–50 mL water, in a concentration range between 10^−2 mM and 10^3 mM (corresponding to a range of a surfactant mass concentration well below 20%), keeping the suspension under stirring for a certain time at room temperature (RT). Consequently, molecules can be classified into two major types: those soluble in water at RT and others insoluble at RT, with the solubility limit being called S (expressed in mM). The aspect of the sample, either transparent or turbid, is determined by direct visual examination. Tk determination with DSC is particularly applicable in the case of molecules insoluble at RT, for which a concentrated binary molecule/water mixture with a mass fraction of 20% of each molecule (C >> CMC in most cases) was prepared at 65 °C under stirring for 30 min to obtain a homogeneous system. These pre-homogenized aqueous systems were cooled and conserved in a refrigerator at 4 °C for a suitable period (>7 days), during which equilibrated hydrated crystals formed and precipitated. Then, for each molecule, about a 200–400 mg crystal sample was taken and put into the calorimeter cell. The first equilibrium phase was programmed at 4 °C for 1 h, followed by a slow heating stage from 4 °C to 65 °C at a rate of 0.5 °C/min. Tk was determined based on the location of the endothermic peak on the DSC curve, if any. All agitations were performed using a standard magnetic hotplate stirrer, MR 3001K (Heidolph Instruments, Schwabach, Germany). DSC curves were obtained from a commercial µDSC7 evo calorimeter (SETARAM Instrumentation, Caluire-et-Cuire, France). Tks are reported as the averages of at least two measurements as well as their standard deviations.

Details of data set [7]: method as in doi:10.1039/C4MD00122B. The note with it: ITC at 25 °C; cited from earlier work.

For the molecule `CCCCCCCCO[C@H]1O[C@H](CO)[C@@H](O)[C@H](O)[C@H]1O` [Molecule C8αGlc, Octyl α-D-glucopyranoside, reference compound], the “Solubility Limit (S/mM)” value in data set [1] (at RT) is listed as “insoluble”. The solubility in data set [1] (at T > Tk) was over 100 mM. Moreover, in data set [2] (Wilhelmy plate method at 25 °C), the CMC is recorded as 12 mM and the γcmc is 30.5 mN/m. The “precipitation when cooling the previously heated solution” value in data set [3] is “within an hour”. In data set [4] (T = 50 °C), this molecule came in with a C20 of 2.8 mM, a pC20 of 2.6, a ΔGads of -7.0 kcal/mol and a ΔGmic of -4.7 kcal/mol. Also, the Amin in data set [4] (T = 50 °C) came to 43 ± 1.8 Å^2/molecule. Also, in data set [4] (T = 50 °C (T > Tk)), the CMC was 15.5 mM and 15.5 ± 0.5 mM; the γcmc is 30.7 mN/m and 30.7 ± 0.3 mN/m.
With `CCCCCCCC(=O)OC[C@H]1O[C@@H](O)[C@H](O)[C@@H](O)[C@@H]1O` [6-O-octanoyl-β-glucose], the CMC in data set [2] (ref 20) was 18 mM. In data set [5] (above its Tk), the solubility limit is 25 mg/mL and > 80 mM.
With `CCCCCCCCCCCCOC(=O)[C@H]1O[C@H](OC)[C@H](O)[C@@H](O)[C@@H]1O` [MeαGlc(C=O)OC12], the solubility in data set [1] (at RT) lay within 0.02 to 0.05 mM (≈ 7.53 to 18.8 µg/mL). In data set [4] (T = 25 °C), this molecule gave a C20 of 0.004 mM, a pC20 of 5.4, a ΔGads of -10.1 kcal/mol and a ΔGmic of -7.2 kcal/mol. The Amin in data set [4] (T = 25 °C) worked out at 45.6 ± 5 Å^2/molecule. In data set [4] (T = 25 °C (T > Tk)), this molecule had a CMC of 0.056 ± 0.004 mM and a γcmc of 28.3 ± 0.3 mN/m. Besides, in data set [6], the “Tk (Krafft temperature)” value is 22.1 ± 0.2 °C.
Regarding `CCCCCCCCO[C@@H]1O[C@H](CO)[C@H](O)[C@H](O)[C@H]1O` [Molecule C8βGal, octyl β-D-galactopyranoside, reference compound], the aspect of solution result in data set [1] (20 mM in water at room temperature) is “nearly transparent”. Also, the solubility in data set [1] (at RT) was 10 to 20 mM (≈ 2920 to 5850 µg/mL). Further, in data set [1] (at T > Tk), the solubility is over 100 mM. Further, in data set [2] (Wilhelmy plate method at 25 °C), the CMC is 16 mM and the γcmc was 30.5 mN/m. Besides, in data set [3], the “precipitation when cooling the previously heated solution” value was “no change was observed over one month”. In data set [4] (T = 40 °C), this molecule came in with a C20 of 3.2 mM, a pC20 of 2.5, a ΔGads of -7.1 kcal/mol and a ΔGmic of -4.4 kcal/mol. In data set [4] (T = 40 °C), the Amin came out at 46.3 ± 1.7 Å^2/molecule. Also, in data set [4] (T = 40 °C (T > Tk)), the CMC was 20 mM and 20 ± 1 mM; the γcmc is 28.5 mN/m and 28.5 ± 0.5 mN/m. The CMC in data set [7] was 31.7 ± 0.7 mM. In data set [5] (derived from the phase diagram of Sakya et al.), the Tk is 42 °C.
For `CCCCCCCCO[C@@H]1O[C@H](CO)[C@@H](O)[C@H](O)[C@H]1O` [Molecule C8βGlc, octyl β-D-glucopyranoside, reference compound], in data set [1] (at RT), the solubility was over 100 mM. Also, the Amin in data set [2] (ref 23) is 38 Å^2/molecule. Besides, in data set [2] (ref 46), the Amin was 42 Å^2/molecule. In data set [4] (T = 25 °C), the C20 was 2.7 mM, the pC20 is listed as 2.6, the ΔGads was -6.4 kcal/mol and the ΔGmic is -4.1 kcal/mol. Also, the Amin in data set [4] (T = 25 °C) is given as 38.5 ± 1.9 Å^2/molecule. In data set [4] (T = 25 °C (T > Tk)), the CMC was 21.2 mM and 21.2 ± 0.8 mM; the γcmc is 31.0 ± 0.15 mN/m. Moreover, the “solubility relative to octyl-α-D-glucoside (C8αGlc)” value in data set [5] (ref 25) is “about seven times larger”.
With `CCCCCCCCCCCC(=O)OC[C@H]1O[C@H](OC)[C@H](O)[C@@H](O)[C@@H]1O` [MeαGlcO(C=O)C11, Methyl 6-O-dodecanoyl-α-D-glucopyranoside], the “Solubility Limit (S/mM)” value in data set [1] (at RT) is “insoluble”. In addition, the solubility in data set [1] (at T > Tk) is at most 0.1 mM. For the same molecule, in data set [4] (T = 50 °C), the C20 amounted to 0.007 mM, the pC20 is listed as 5.1, the ΔGads was -10.4 kcal/mol and the ΔGmic is -7.7 kcal/mol. In data set [4] (T = 50 °C), the Amin amounted to 45.8 ± 2.8 Å^2/molecule. Moreover, in data set [4] (T = 50 °C (T > Tk)), the CMC was 0.08 ± 0.005 mM and the γcmc is recorded as 26.7 ± 0.25 mN/m. Also, the “Tk (Krafft temperature)” value in data set [6] was found to be 42.9 ± 0.1 °C.
Consider `CCCCCCCCO[C@H]1O[C@H](CO)[C@H](O)[C@H](O)[C@H]1O` [Molecule C8αGal, Octyl α-D-galactopyranoside, reference compound], for which the solubility in data set [1] (at RT) is over 100 mM. For the same molecule, in data set [4] (T = 25 °C), the C20 is listed as 3.8 mM, the pC20 was found to be 2.4, the ΔGads was -6.4 kcal/mol and the ΔGmic was -3.6 kcal/mol. The Amin in data set [4] (T = 25 °C) is on record as 45.8 ± 0.9 Å^2/molecule. Moreover, in data set [4] (T = 25 °C (T > Tk)), the CMC is 51.7 mM and 51.7 ± 1.5 mM; the γcmc amounted to 29.5 ± 0.2 mN/m. In data set [7], the CMC is 30.2 ± 0.4 mM. In addition, in data set [6], the “Tk (Krafft temperature)” value was under 4 °C.
